Laboratory results from patent US20260022143A1, “Cyclic Peptide Inhibitors of IL-23” (JANSSEN PHARMACEUTICA NV, priority 2022, published 2026).
Read-outs that look alike come from different tables or passages of the source. Starred links: 1 amine or outer side, 2 acyl side, 3 side chain; linkers in the order of their positions; H or OH if unused. Positions of bridges follow the written chain, without caps; N, C: chain ends. Non-standard residues stand in square brackets, D forms with d. Residues, ends and D or L forms follow the SMILES beside them. Groups on a side chain read outwards from the residue. ξ: configuration not given here. *: point of attachment. X48 = CCCCCCCCCCCC(=O)N[C@@H](CCC(=O)*)C(=O)N[C@H](CC(=O)O)C[N+](C)(C)C; Me3N+(CH2)2O(CH2)2O(CH2)2CO = C[N+](C)(C)CCOCCOCCC(=O)*; CH2CH2OCH2CH2OCH2CH2NMe3+ = C[N+](C)(C)CCOCCOCC*; dTrp(7-Me) = Cc1cccc2c(C[C@@H](N)C(=O)O)c[nH]c12; Trp(7-Me) = Cc1cccc2c(C[C@H](N)C(=O)O)c[nH]c12; d(hLys(Me3)) = C[N+](C)(C)CCCCC[C@@H](N)C(=O)O; Abu(4-yl) = O=C([C@H](CC[*:3])N[*:1])[*:2]; γGlu = O=C(O)[C@H](CCC(=O)[*:2])N[*:1]; 2Nal = N[C@@H](Cc1ccc2ccccc2c1)C(=O)O; AEF = NCCOc1ccc(C[C@H](N)C(=O)O)cc1; 3Pal = N[C@@H](Cc1cccnc1)C(=O)O; Myristoyl = CCCCCCCCCCCCCC(=O)*; Lys(Me) = CNCCCC[C@H](N)C(=O)O; Pen = CC(C)(S)[C@H](N)C(=O)O; ξLys(Me) = CNCCCCC(N)C(=O)O; αMeC = C[C@](N)(CS)C(=O)O; Thp = NC1(C(=O)O)CCOCC1; X3 = C[N+](C)(C)CCCCC*; AEEA = NCCOCCOCC(=O)O; Sar = CNCC(=O)O

Experiments:
[1] = Exposed Polar Surface Area (EPSA); type: physicochemical; settings: SFC on Chirex 3014 column, sample 1 mM DMSO stock
Procedure, shortened: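 SFC retention on a Chirex 3014 (S)-valine/(R)-1-(α-naphthyl)ethylamine column, 35 °C, CO2 with MeOH (20 mM ammonium formate) gradient 5–60% at 20%/min, 14 MPa outlet. Retention times converted to EPSA (Å^2) via linear calibration with 8 standards; samples from 1 mM DMSO stock, run in duplicate.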

IL-23R = molecular target: T1, IL-23R (Homo sapiens, UniProt Q5VWK5); assay: IL23R Reporter Assay; type: cell-based; settings: HEK293 cells containing IL-23R, IL-12RP1 and STAT-inducible firefly luciferase reporter; 10 ng/mL IL-23 (EC90); 5 h at 37° C.; read-out: IL23R Reporter Assay
T1 construct: host or cells: HEK293
T1 sequence (Q5VWK5 24-629): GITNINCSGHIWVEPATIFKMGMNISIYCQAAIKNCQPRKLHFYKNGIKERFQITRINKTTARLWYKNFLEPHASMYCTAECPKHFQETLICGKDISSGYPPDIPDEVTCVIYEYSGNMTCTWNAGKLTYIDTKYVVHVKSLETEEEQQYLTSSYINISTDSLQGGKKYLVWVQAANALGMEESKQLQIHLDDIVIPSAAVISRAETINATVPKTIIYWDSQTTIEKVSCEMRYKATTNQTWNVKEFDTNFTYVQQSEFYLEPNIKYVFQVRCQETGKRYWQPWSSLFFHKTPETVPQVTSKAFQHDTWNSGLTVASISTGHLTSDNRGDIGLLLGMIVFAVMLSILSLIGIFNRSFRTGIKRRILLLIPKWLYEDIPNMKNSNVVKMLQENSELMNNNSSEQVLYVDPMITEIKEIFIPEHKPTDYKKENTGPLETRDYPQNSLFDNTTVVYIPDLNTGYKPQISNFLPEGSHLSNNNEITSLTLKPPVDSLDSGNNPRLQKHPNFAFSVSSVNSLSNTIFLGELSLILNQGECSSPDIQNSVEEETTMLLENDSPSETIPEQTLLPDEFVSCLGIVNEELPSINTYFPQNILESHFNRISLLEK

| Molecule | EPSA ([1]; read-out: EPSA) [A^2] | IC50 (IL-23R) [nM] | EPSA [1] [Å^2] |
| --- | --- | --- | --- |
| CC(=O)NCCCC[C@@H]1NC(=O)[C@H](Cc2c[nH]c3ccccc23)NC(=O)[C@H]([C@@H](C)O)NC(=O)[C@H](CC(N)=O)NC(=O)[C@@H](NC(=O)[C@@H](CCCNC(=N)N)NC(C)=O)CCSC[C@@](C)(C(=O)N[C@@H](Cc2ccc(OCCCCC[N+](C)(C)C)cc2)C(=O)N[C@@H](Cc2ccc3ccccc3c2)C(=O)NC2(C(=O)N[C@@H](CCCCNC(C)=O)C(=O)N[C@@H](CC(N)=O)C(=O)N[C@@H](Cc3cccnc3)C(=O)N(C)CC(N)=O)CCOCC2)NC1=O [compound 568, MeCO-r-Abu(1)-N-T-W-K(Ac)-aMeC(1)-TMAPF-2Nal-THP-K(Ac)-N-3Pya-Sar-CONH2] (Ac-[dR][Abu(4-yl)]NTWK(Ac)[αMeC]Y(X3)[2Nal][Thp]K(Ac)N[3Pal][Sar]-NH2; thioether 2-7) | 174 | 390 | – |
| CCCCCCCCCCCCCC(=O)N[C@@H](CCC(=O)NCCOCCOCC(=O)NCCOCCOCC(=O)NCCCC[C@H](NC(=O)[C@H](Cc1ccc2ccccc2c1)NC(=O)[C@H](Cc1ccc(OCCCCC[N+](C)(C)C)cc1)NC(=O)[C@H]1NC(=O)[C@H](CCCCN(C)C(C)=O)NC(=O)[C@H](Cc2c[nH]c3c(C)cccc23)NC(=O)[C@H]([C@@H](C)O)NC(=O)[C@H](CC(=O)N(C)C)NC(=O)[C@@H](NC(=O)[C@@H](CCCCC[N+](C)(C)C)NC(=O)COCCOCCNC(=O)COCCOCCNC(=O)CC[C@H](NC(=O)CCCCCCCCCCCCC)C(=O)O)C(C)(C)SSC1(C)C)C(=O)N[C@@H](CC(N)=O)C(=O)N[C@@H](Cc1cccnc1)C(=O)N(C)CC(=O)N(C)C)C(=O)O [compound 570, C14gEPEG2PEG2CO-hk(Me)3-Pen(3)-N(N(Me)2)-T-7MeW-K(NMeAc)-Pen(3)-TMAPF-2Nal-K(PEG2PEG2gEC14)-N-3Pya-Sar-CON(Me)2] ({Myristoyl-γGlu-AEEA-AEEA}-[d(hLys(Me3))][Pen]D(NMe2)T[Trp(7-Me)][Lys(Me)](Ac)[Pen]Y(X3)[2Nal]K([AEEA-AEEA-γGlu-Myristoyl])N[3Pal][Sar]-NMe2; disulfide 2-7) | 154 | 29 | – |
| CCCCCCCCCCCC(=O)N[C@@H](CCC(=O)NCCOCCOCC(=O)NCCOCCOCC(=O)NCCCC[C@@H](NC(C)=O)C(=O)N[C@@H]1C(=O)N[C@@H](CC(N)=O)C(=O)N[C@@H]([C@@H](C)O)C(=O)N[C@H](Cc2c[nH]c3c(C)cccc23)C(=O)N[C@@H](CCCCNC(C)=O)C(=O)N[C@H](C(=O)N[C@@H](Cc2ccc(OCCN)cc2)C(=O)N[C@@H](Cc2ccc3ccccc3c2)C(=O)NC2(C(=O)N[C@@H](CCCCNC(C)=O)C(=O)N[C@@H](CC(N)=O)C(=O)N[C@@H](Cc3cccnc3)C(=O)N(C)CC(N)=O)CCOCC2)C(C)(C)SSC1(C)C)C(=O)N[C@H](CC(=O)O)C[N+](C)(C)C [compound 572, MeCO-canEG2PEG2gE(c)C12-Pen(3)-N-T-7MeW-K(Ac)-Pen(3)-AEF-2Nal-THP-K(Ac)-N-3Pya-Sar-CONH2] (Ac-[dK]([AEEA-AEEA-X48])[Pen]NT[dTrp(7-Me)]K(Ac)[Pen][AEF][2Nal][Thp]K(Ac)N[3Pal][Sar]-NH2; disulfide 2-7) | 166 | 5.8 | – |
| CC(=O)N(C)CCCCC(NC(=O)C1(NC(=O)[C@H](Cc2ccc3ccccc3c2)NC(=O)[C@H](Cc2ccc(OCCOCCOCC[N+](C)(C)C)cc2)NC(=O)[C@H]2NC(=O)[C@H](CCCCN(C)C(C)=O)NC(=O)[C@H](Cc3c[nH]c4c(C)cccc34)NC(=O)[C@H]([C@@H](C)O)NC(=O)[C@H](CC(=O)N(C)C)NC(=O)[C@@H](NC(=O)CCOCCOCC[N+](C)(C)C)C(C)(C)SSC2(C)C)CCOCC1)C(=O)N[C@@H](CC(N)=O)C(=O)N[C@@H](Cc1ccccc1)C(=O)N(C)CC(=O)N(C)C (stereo partly shown) [compound 573, cPEG3aCO-Pen(3)-N(N(Me)2)-T-7MeW-K(NMeAc)-Pen(3)-APEG3F-2Nal-THP-K(NMeAc)-N-F-Sar-CON(Me)2] ({Me3N+(CH2)2O(CH2)2O(CH2)2CO}-[Pen]D(NMe2)T[Trp(7-Me)][Lys(Me)](Ac)[Pen]Y(CH2CH2OCH2CH2OCH2CH2NMe3+)[2Nal][Thp][ξLys(Me)](Ac)NF[Sar]-NMe2; disulfide 1-6) | 153 | 650 | – |
| cPEG3aCO-k(PEG2PEG2gEC14)-Pen(3)-N(N(Me)2)-T-7MeW-K(NMeAc)-Pen(3)-TMAPF-2Nal-THP-K(NMeAc)-N-3Pya-Sar-CON(Me)2 [compound 379] | – | 12 | 149.74 |
